Consider 29 compounds from US9914730B2, “Azaquinazoline inhibitors of Atypical protein Kinase C” (Ignyta, Inc., priority 2012, dated 2018).

This test concerns the target T1, full-length human PKCι (Homo sapiens, UniProt P41743).
T1 construct: Recombinant, full-length human PKCι expressed in Sf21 insect cells is also commercially available; purchased; host or cells: Sf21 insect cells
T1 sequence (P41743 1-596): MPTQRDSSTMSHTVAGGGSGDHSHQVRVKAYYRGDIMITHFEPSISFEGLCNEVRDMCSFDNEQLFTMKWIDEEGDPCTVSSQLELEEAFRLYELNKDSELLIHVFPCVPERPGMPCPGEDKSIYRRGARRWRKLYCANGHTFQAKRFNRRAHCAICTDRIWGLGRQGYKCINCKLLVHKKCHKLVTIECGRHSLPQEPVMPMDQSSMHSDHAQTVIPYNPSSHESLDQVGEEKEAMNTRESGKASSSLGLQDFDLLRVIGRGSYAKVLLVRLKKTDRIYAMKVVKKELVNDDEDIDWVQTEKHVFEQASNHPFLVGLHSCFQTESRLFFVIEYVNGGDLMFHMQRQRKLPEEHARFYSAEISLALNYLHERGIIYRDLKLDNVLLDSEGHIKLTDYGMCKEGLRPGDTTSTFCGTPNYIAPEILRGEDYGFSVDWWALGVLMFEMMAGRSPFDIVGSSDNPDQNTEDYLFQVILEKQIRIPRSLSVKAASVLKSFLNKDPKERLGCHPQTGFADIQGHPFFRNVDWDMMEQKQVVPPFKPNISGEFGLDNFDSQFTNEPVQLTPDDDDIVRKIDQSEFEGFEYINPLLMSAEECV
Description: PKCι IC50 IMAP assay, full-length PKCι at 150 μM ATP. Conditions: read-out: IC50 in IMAP assay against full length PKCi at 150 μM ATP. The test is classed as biochemical. In outline: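 Phosphorylation of a 5FAM-tagged PKCε pseudopeptide-derived substrate (100 nM) by full-length recombinant human PKCι was monitored by IMAP fluorescence polarisation. ATP was held at 150 μM, five times its apparent KM, with 60 min room-temperature incubation.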

Structures can show the parent of a compound that is named as a salt.

For `CC(=O)Nc1cc(-c2nc(N3CCN[C@@H](CS(C)(=O)=O)C3)c3c(C4CC4)cncc3n2)ccn1` [Example 770, N-{4-[5-Cyclopropyl-4-((R)-3-methanesulfonyl-methyl-piperazin-1-yl)-pyrido[3,4-d]pyrimidin-2-yl]-pyridin-2-yl}-acetamide], the 50% inhibitory concentration (IC50) was 100 to 1000 nM. As to `COc1cccc(Nc2cc(-c3nc(N4CC[C@H](CO)C4)c4c(OC)cncc4n3)ccn2)n1` [Example 471, ((S)-1-{5-Methoxy-2-[2-(6-methoxy-pyridin-2-ylamino)-pyridin-4-yl]-pyrido[3,4-d]pyrimidin-4-yl}-pyrrolidin-3-yl)-methanol], the IC50 lay in the range of 1000 to 10000 nM. Regarding `CC(C)NC(=O)C1CCN(c2nc(-c3ccncc3)nc3cnccc23)CC1` [Example 55, N-(propan-2-yl)-1-[2-(pyridin-4-yl)-pyrido[3,4-d]-pyrimidin-4-yl]-piperidine-4-carboxamide], the IC50 fell in the range of 1000 to 10000 nM.

As for `COCCN1CCN(c2nc(-c3ccnc(Nc4ccccc4)c3)nc3cncc(C4CC4)c23)CC1` [Example 661, (4-{5-Cyclopropyl-4-[4-(2-methoxy-ethyl)-piperazin-1-yl]-pyrido[3,4-d]pyrimidin-2-yl}-pyridin-2-yl)-phenyl-amine], the IC50 lay in the range of 1000 to 10000 nM. Take `Fc1ccc(F)c(Nc2cc(-c3nc(N4CCNCC4)c4c(C5CC5)cncc4n3)ccn2)c1` [Example 521, [4-(5-Cyclopropyl-4-piperazin-1-yl-pyrido[3,4-d]pyrimidin-2-yl)-pyridin-2-yl]-(2,5-difluoro-phenyl)-amine]: the IC50 is under 100 nM. Turning to `Cc1cccc(Nc2cc(-c3nc(N4CCNCC4)c4c(C5CC5)cncc4n3)ccn2)c1C` [Example 540, [4-(5-Cyclopropyl-4-piperazin-1-yl-pyrido[3,4-d]pyrimidin-2-yl)-pyridin-2-yl]-(2,3-dimethyl-phenyl)-amine], the IC50 was under 100 nM. For the compound `CCc1ccc(Nc2cc(-c3nc(N4CCNCC4)c4c(C5CC5)cncc4n3)ccn2)c(F)c1` [Example 717, [4-(5-Cyclopropyl-4-piperazin-1-yl-pyrido[3,4-d]pyrimidin-2-yl)-pyridin-2-yl]-(4-ethyl-2-fluoro-phenyl)-amine], the half-maximal inhibitory concentration (IC50) is under 100 nM. As for `Fc1cnc(Nc2c(F)cccc2F)cc1-c1nc(N2CCNCC2)c2c(C3CC3)cncc2n1` [Example 764, [4-(5-Cyclopropyl-4-piperazin-1-yl-pyrido[3,4-d]pyrimidin-2-yl)-5-fluoro-pyridin-2-yl]-(2,6-difluoro-phenyl)-amine], the figure is under 100 nM; as for “[4-(5-Cyclopropyl- 4-piperazin-1-yl- pyrido[3,4- d]pyrimidin-2-yl)- pyridin-2-yl]-(2,3- dichloro-phenyl)- amine [Example 543]”, under 100 nM.

In the case of “(3-Chloro-2,6- difluoro-phenyl)- [4-(5-cyclopropyl- 4-piperazin-1-yl- pyrido[3,4- d]pyrimidin-2-yl)- pyridin-2-yl]- amine [Example 649]”, the IC50 was under 100 nM. Regarding `COc1cncc2nc(-c3ccnc(Nc4nc(C)c(C)o4)c3)nc(N3CCNCC3)c12` [Example 203, (4,5-Dimethyl-oxazol-2-yl)-[4-(5-methoxy-4-piperazin-1-yl-pyrido[3,4-d]pyrimidin-2-yl)-pyridin-2-yl]-amine], the IC50 was under 100 nM. As for `COc1cncc2nc(-c3ccnc(Nc4cnccn4)c3)nc(N3CCNCC3)c12` [Example 201, [4-(5-Methoxy-4-piperazin-1-yl-pyrido[3,4-d]pyrimidin-2-yl)-pyridin-2-yl]-pyrazin-2-yl-amine], the figure is under 100 nM; as for `COc1cncc2nc(-c3ccnc(Nc4ccccc4)c3)nc(N3CCC(O)C(O)C3)c12` (single isomer, unassigned) [Example 463, (3R,4S)-1-[5-Methoxy-2-(2-phenylamino-pyridin-4-yl)-pyrido[3,4-d]pyrimidin-4-yl]-piperidine-3,4-diol or (3S,4R)-1-[5-Methoxy-2-(2-phenylamino-pyridin-4-yl)-pyrido[3,4-d]pyrimidin-4-yl]-piperidine-3,4-diol], 1000 to 10000 nM.

For `C[C@H]1CN(c2nc(-c3ccnc(Nc4c(F)cccc4F)c3)nc3cncc(C4CC4)c23)CCN1` [Example 692, {4-[5-Cyclopropyl-4-((S)-3-methyl-piperazin-1-yl)-pyrido[3,4-d]pyrimidin-2-yl]-pyridin-2-yl}-(2,6-difluoro-phenyl)-amine], the IC50 was under 100 nM. Turning to `CCCCc1cncc2nc(-c3ccncc3)nc(N3CCNCC3)c12` [Example 135, 5-Butyl-4-piperazin-1-yl-2-pyridin-4-yl-pyrido[3,4-d]pyrimidine], the IC50 is under 100 nM.

As to `COc1cncc2nc(-c3ccnc(Nc4nc(C(F)(F)F)co4)c3)nc(N3CCNCC3)c12` [Example 202, [4-(5-Methoxy-4-piperazin-1-yl-pyrido[3,4-d]pyrimidin-2-yl)-pyridin-2-yl]-(4-trifluoromethyl-oxazol-2-yl)-amine], the IC50 is under 100 nM. As for `NC(=O)N1CCN(c2nc(-c3ccncc3)nc3cnccc23)CC1` [Example 56, 4-[2-(pyridin-4-yl)-pyrido[3,4-d]-pyrimidin-4-yl]-piperazine-1-carboxamide], the IC50 lay within 10000 to 40000 nM. As to `Fc1ccc(Nc2cc(-c3nc(N4CCNCC4)c4c(C5CC5)cncc4n3)ccn2)nc1` [Example 271, [4-(5-Cyclopropyl-4-piperazin-1-yl-pyrido[3,4-d]pyrimidin-2-yl)-pyridin-2-yl]-(5-fluoro-pyridin-2-yl)-amine], the IC50 is under 100 nM.

For `Fc1cc(C2CC2)nc(F)c1Nc1cc(-c2nc(N3CCNCC3)c3c(C4CC4)cncc3n2)ccn1` [Example 724, (6-Cyclopropyl-2,4-difluoro-pyridin-3-yl)-[4-(5-cyclopropyl-4-piperazin-1-yl-pyrido[3,4-d]pyrimidin-2-yl)-pyridin-2-yl]-amine; bis-trifluoroacetic salt], the IC50 is under 100 nM.

As to `N#Cc1ccnc(Nc2cc(-c3nc(N4CCN[C@@H](CF)C4)c4c(C5CC5)cncc4n3)ccn2)c1` [Example 530, 2-{4-[5-Cyclopropyl-4-((R)-3-fluoromethyl-piperazin-1-yl)-pyrido[3,4-d]-pyrimidin-2-yl]-pyridin-2-ylamino}-iso-nicotinonitrile], the 50% inhibitory concentration (IC50) was under 100 nM. Take `N[C@H]1CCCN(c2nc(-c3ccnc(Nc4ncc(F)cc4F)c3)nc3cncc(C4CC4)c23)C1` [Example 2198, {4-[4-(3-Amino-piperidin-1-yl)-5-cyclopropyl-pyrido[3,4-d]pyrimidin-2-yl]-pyridin-2-yl}-(3,5-difluoro-pyridin-2-yl)-amine]: the IC50 is under 100 nM. For `C[C@@H](Nc1cc(-c2nc(N3CCNCC3)c3c(C4CC4)cncc3n2)ccn1)C1CCCCC1` [Example 811, ((R)-1-Cyclohexyl-ethyl)-[4-(5-cyclopropyl-4-piperazin-1-yl-pyrido[3,4-d]pyrimidin-2-yl)-pyridin-2-yl]-amine], the half-maximal inhibitory concentration (IC50) was under 100 nM. As to `FC(F)(F)CC1CN(c2nc(-c3ccnc(Cl)c3)nc3cncc(C4CC4)c23)CCN1` (centres unmarked) [Example 615, 2-(2-Chloro-pyridin-4-yl)-5-cyclopropyl-4-[3-(2,2,2-trifluoro-ethyl)-piperazin-1-yl]-pyrido[3,4-d]pyrimidine], the IC50 was in the range of 100 to 1000 nM. As for `CC(F)(F)C1CN(c2nc(-c3ccnc(Nc4ccccc4)c3)nc3cncc(C4CC4)c23)CCN1` (centres unmarked) [Example 278, (4-{5-Cyclopropyl-4-[3-(1,1-difluoro-ethyl)-piperazin-1-yl]-pyrido[3,4-d]pyrimidin-2-yl}-pyridin-2-yl)-phenyl-amine], the figure is 10000 to 40000 nM; as for `C[C@@H](Nc1cc(-c2nc(N3CCNC(C)(C)C3)c3c(C4CC4)cncc3n2)ccn1)c1ccccc1` [Example 2007, {4-[5-Cyclopropyl-4-(3,3-dimethyl-piperazin-1-yl)-pyrido[3,4-d]pyrimidin-2-yl]-pyridin-2-yl}-((R)-1-phenyl-ethyl)-amine], under 100 nM; as for `c1ccc2nc(Nc3cc(-c4nc(N5CCNCC5)c5c(C6CC6)cncc5n4)ccn3)ccc2c1` [Example 2078, [4-(5-Cyclopropyl-4-piperazin-1-yl-pyrido[3,4-d]pyrimidin-2-yl)-pyridin-2-yl]-[D4],[D3]uinolin-2-yl-amine], under 100 nM. As for `c1ccc2c(c1)CC(Nc1cc(-c3nc(N4CCNCC4)c4c(C5CC5)cncc4n3)ccn1)C2` [Example 2097], the figure is under 100 nM; as for `O=C(NCCO)C1CCN(c2nc(-c3ccnc(Nc4c(F)cccc4F)c3)nc3cncc(C4CC4)c23)CC1` [Example 685, 1-{5-Cyclopropyl-2-[2-(2,6-difluoro-phenylamino)-pyridin-4-yl]-pyrido[3,4-d]pyrimidin-4-yl}-piperidine-4-carboxylic acid (2-hydroxy-ethyl)-amide], 100 to 1000 nM.

On to `COc1cncc2nc(-c3ccnc4[nH]ccc34)nc(N3CCNCC3)c12` [Example 1200, 5-Methoxy-4-piperazin-1-yl-2-(1H-pyrrolo[2,3-b]pyridin-4-yl)-pyrido[3,4-d]pyrimidine], for which the IC50 is under 100 nM.

As a reminder, the IC50 is the concentration that gives 50% inhibition.
